Results taken from PMC9856062, “Nano-Zirconium Dioxide Catalyzed Multicomponent Synthesis of Bioactive Pyranopyrazoles That Target Cyclin Dependent Kinase 1 in Human Breast Cancer Cells” (Biomedicines, 2023).
Several values for one entry are separate records, joined by “and”; a condition that tells them apart may be missing. Equal entries are not always repeated. Where two headings read alike, the source gives them in different places.

Key:
T47D = assay: Breast cancer cell proliferation, Alamar Blue, T47D; assay type: cell-based; settings: Homo sapiens, 72 h; T47D cells, 2% FBS medium, 3 days
MDA-MB-231 = assay: Breast cancer cell proliferation, Alamar Blue, MDA-MB-231; assay type: cell-based; settings: Homo sapiens, 72 h; MDA-MB-231 cells, 2% FBS medium, 3 days
MCF-7 cells = assay: MCF-7 cell viability assay (Alamar Blue); assay type: cell-based, human; settings: for effect on viability of MCF-7 cells: 0, 0.01, 0.1, 10, and 100 µM; for IC50: MCF-7 cells
Method: We obtained MCF-7 cells from Procell Life Science and Technology. A humidified atmosphere of 5% CO2 was maintained at 37 °C for the culture of MCF-7 cells (2000) in MEM or Leibovitz’s L-15 medium enriched with 2% FBS [21, 22, 23, 24]. DMSO was used to prepare a stock solution of pyranopyrazoles, and the stock solution was then diluted with culture medium to achieve the desired concentration. […] Incubation with AlamarBlue assay reagent was performed for a further 4 h. According to the established protocol, the IC50 values of compounds were determined in the absence and presence of pyranopyrazoles.
Figure 4 Loss of MCF-7 cell viability produced by compounds 5b 5d, and 5f. MCF-7 cells were exposed to 5b (A), 5d (B), and 5f (C) for 72 h and the viability of cells was analyzed by Alamar Blue assays. The results are presented as mean ± S.E.M. of triplicate determinations.

SKBR3 = assay: Breast cancer cell proliferation, Alamar Blue, SKBR3; assay type: cell-based; settings: Homo sapiens, SK-BR-3, 72 h; SKBR3 cells, 2% FBS medium, 3 days
CDK1 [1] = molecular target: T1, CDK1 (Homo sapiens, UniProt P06493); assay: CDK1 kinase assay (ADP-Glo / Kinase-Glo luminescence); assay type: biochemical; design: 1 mg of CDK1 antibodies were used to immunoprecipitate 1 mg of protein from the total cell lysate; endogenous in cells; host or cells: total cell lysate
Method: Promega’s Kinase-Glo luminescence assay was used for detection of CDK1 activity. IgG was used as a negative control, and 1 mg of CDK1 antibodies were used to immunoprecipitate 1 mg of protein from the total cell lysate. At […], the reaction mixture was incubated for three hours and subsequently, beads were washed three times with lysis buffer, following overnight incubation at […]. The reactant beads were added to […] kinase reaction buffer containing 0.2 mM ATP, 2 mM DTT, 0.1 mg/mL BSA, 20 mM MgCl2, and 40 mM Tris-HCl, and beads were resuspended for 30 min at room temperature with a CDK1/2 specific substrate (p53). A total of 10 µl of ADP-GLO reagent and […] of kinase detection reagent were added to the reaction for 40 min at room temperature and 5 min at room temperature, respectively. […]
Since the ADP-GloTM Kinase Assay uses multiple enzymes as components, it should not generate a high rate of interference or false responses when screening pyranopyrazoles anti-CDK1 activity. […] Based on the luminescence units for compounds 5b and 5f, Figure 8 illustrates the standard curves generated for inhibition of cdk1 activity by pyranopyrazoles at different concentrations. […]
Figure 8 In vitro inhibition of CDK1 by compounds 5b (A) and 5f (B). The inhibitory effect of pyranopyrazoles on CKD1 measured using ADP−Glo™ reagent. […]

MCF-10A cells = assay: Cytotoxicity to normal breast cells, Alamar Blue, MCF-10A; assay type: cell-based; settings: Homo sapiens, 72 h; MCF-10A normal breast cells, 2% FBS medium, 3 days
BT-474 cells = assay: Breast cancer cell proliferation, Alamar Blue, BT-474; assay type: cell-based; settings: Homo sapiens, 72 h, 2% FBS medium, 3 days
CDK1 [2] = molecular target: T1, CDK1; design: method as in PMID 34156352; settings: literature value; cited from earlier work

T1 sequence (P06493 whole entry): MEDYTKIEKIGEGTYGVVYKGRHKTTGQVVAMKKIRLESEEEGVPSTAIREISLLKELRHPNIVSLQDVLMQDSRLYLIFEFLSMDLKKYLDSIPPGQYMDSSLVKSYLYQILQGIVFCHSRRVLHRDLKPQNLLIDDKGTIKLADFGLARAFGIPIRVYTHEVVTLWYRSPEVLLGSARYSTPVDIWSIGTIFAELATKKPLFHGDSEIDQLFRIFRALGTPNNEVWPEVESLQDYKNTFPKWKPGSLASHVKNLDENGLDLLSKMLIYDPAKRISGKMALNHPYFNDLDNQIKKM
T1 sequence (P14635 whole entry partner): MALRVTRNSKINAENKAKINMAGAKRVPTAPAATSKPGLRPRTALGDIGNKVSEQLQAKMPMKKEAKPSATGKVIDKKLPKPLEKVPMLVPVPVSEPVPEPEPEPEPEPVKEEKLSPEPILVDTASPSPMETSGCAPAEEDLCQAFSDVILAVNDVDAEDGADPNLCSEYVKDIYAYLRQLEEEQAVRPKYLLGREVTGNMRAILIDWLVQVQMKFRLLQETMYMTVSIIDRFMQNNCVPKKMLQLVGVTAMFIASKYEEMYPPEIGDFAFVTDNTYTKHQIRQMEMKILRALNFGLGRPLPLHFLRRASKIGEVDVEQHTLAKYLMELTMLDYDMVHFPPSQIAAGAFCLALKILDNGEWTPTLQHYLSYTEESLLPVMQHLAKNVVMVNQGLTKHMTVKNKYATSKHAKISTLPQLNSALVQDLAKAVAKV

SMILES | IC50 (T47D) [µM] | IC50 (MDA-MB-231) [µM] | IC50 (MCF-7 cells; Homo sapiens, MCF7, 72 h) [µM] | IC50 (MCF-7 cells; 72 h) | IC50 (SKBR3) [µM] | melting point [°C] | IC50 (CDK1 [1]) [µM] | IC50 (BT-474 cells) [µM] | effect on viability of MCF-7 cells (MCF-7 cells; 72 h) | IC50 (MCF-10A cells) [µM] | IC50 (CDK1 [2]) [µM]
Cc1cc(-c2cccc(C3C(C#N)=C(N)Oc4[nH]nc(C)c43)c2)cnc1F (stereo not shown) [5b, 6-Amino-4-(3-(6-fluoro-5-methylpyridin-3-yl)phenyl)-3-methyl-1,4-dihydropyrano [2,3-c] Pyrazole-5-carbonitrile] | 27.5 | 13.5 | 17.8 | 17.2 µM and 17 µM | > 100 | 214 to 215 | 0.96 | 23.7 | dose–dependent decrease | 90.5 | 
Cc1cc(-c2ccc(C3C(C#N)=C(N)Oc4[nH]nc(C)c43)cc2)cnc1F (stereo not shown) [5f, 6-Amino-4-(4-(6-fluoro-5-methylpyridin-3-yl)phenyl)-3-methyl-1,4-dihydropyrano [2,3-c] Pyrazole-5-carbonitrile] | 45.8 | 19.1 | 23.8 |  | > 100 | 268 to 269 | 7.16 | 15.2 | dose–dependent decrease | > 100 | 
Cc1nn(-c2ccc(Cl)cc2)c2c1C(c1cccc(-c3cncnc3)c1)C(C#N)=C(N)O2 (stereo not shown) [5g, 6-Amino-1-(4-chlorophenyl)-3-methyl-4-(3-(pyrimidin-5-yl)phenyl)-1,4-dihydropyrano [2,3-c] Pyrazole-5-carbonitrile] |  |  |  |  |  | 242 to 243 |  |  |  |  | 
O=C(c1cc(Cc2n[nH]c(=O)c3ccccc23)ccc1F)N1CCN(C(=O)C2CC2)CC1 [Olaparib, reference compound] |  |  | 3.28 |  |  |  |  |  |  |  | 
CC(C)CC(=O)Nc1[nH]nc2c1CN(C(=O)C1CCN(C)CC1)C2(C)C [PHA-793887] |  |  |  |  |  |  |  |  |  |  | 0.06
Cc1cc(-c2cccc(C3C(C#N)=C(N)Oc4[nH]nc(C)c43)c2)cnc1Cl (stereo not shown) [5d, 6-Amino-4-(3-(6-chloro-5-methylpyridin-3-yl)phenyl)-3-methyl-1,4-dihydropyrano [2,3-c] Pyrazole-5-carbonitrile] |  |  | 38.9 |  |  | 212 to 214 |  |  | dose–dependent decrease |  | 

Second part, led by results:

IC50 (T47D) [µM] | IC50 (MDA-MB-231) [µM] | IC50 (MCF-7 cells; Homo sapiens, MCF7, 72 h) [µM] | IC50 (MCF-7 cells; 72 h) | IC50 (SKBR3) [µM] | melting point [°C] | IC50 (CDK1 [1]) [µM] | IC50 (BT-474 cells) [µM] | SMILES | effect on viability of MCF-7 cells (MCF-7 cells; 72 h) | IC50 (MCF-10A cells) [µM] | IC50 (CDK1 [2]) [µM]
33.7 | 15 |  |  | 69.4 | 245 to 247 |  | 21.3 | Cc1n[nH]c2c1C(c1cccc(-c3ccncc3)c1)C(C#N)=C(N)O2 (stereo not shown) [5c, 6-Amino-3-methyl-4-(3-(pyridin-4-yl)phenyl)-1,4-dihydropyrano [2,3-c] Pyrazole-5-carbonitrile] |  | 88.2 | 
 |  | 55 |  |  | 196 to 198 |  |  | Cc1n[nH]c2c1C(c1ccc(-c3cncnc3)cc1)C(C#N)=C(N)O2 (stereo not shown) [5a, 6-Amino-3-methyl-4-(4-(pyrimidin-5-yl)phenyl)-1,4-dihydropy-rano [2,3-c] Pyrazole-5-carbonitrile] |  |  | 
> 100 | 22.1 | > 100 |  | > 100 | 232 to 234 |  | 50.2 | Cc1n[nH]c2c1C(c1ccc(-c3ccncc3)cc1)C(C#N)=C(N)O2 (stereo not shown) [5e, 6-Amino-3-methyl-4-(4-(pyridin-4-yl)phenyl)-1,4-dihydropyra-no [2,3-c] Pyrazole-5-carbonitrile] |  | > 100 | 
